Measured values taken from ChEMBL document CHEMBL4507326, “Data for DCP probe TP-030-2” (2021).

Legend:
[1] = biological target: Ankyrin repeat and protein kinase domain-containing protein 1 (Homo sapiens, UniProt Q8NFD2); assay: SgK288(ANK1LGRL) Takeda global kinase panel
[2] = biological target: Serine/threonine-protein kinase ULK2 (Homo sapiens, UniProt Q8IYT8); assay: ULK2(ULK2LGY1) Takeda global kinase panel
[3] = biological target: Serine/threonine-protein kinase ULK3 (Homo sapiens, UniProt Q6PHR2); assay: ULK3(ULK3LGF1) Takeda global kinase panel
[4] = biological target: Ephrin type-B receptor 4 (Homo sapiens, UniProt P54760); assay: EphB4(EPB4LGY1) Takeda global kinase panel
[5] = biological target: Beta-3 adrenergic receptor (Homo sapiens) (UniProt P13945); details: Compound concentration 10.0 uM
[6] = biological target: B1 bradykinin receptor (Homo sapiens) (UniProt P46663); details: Compound concentration 10.0 uM
[7] = biological target: Serine/threonine-protein kinase ICK (Homo sapiens, UniProt Q9UPZ9); assay: ICK(ICK1LGP1) Takeda global kinase panel
[8] = biological target: Non-receptor tyrosine-protein kinase TYK2 (Homo sapiens, UniProt P29597); assay: Tyk2(TYK2LGF1) Takeda global kinase panel
[9] = biological target: Muscarinic acetylcholine receptor M2 (Homo sapiens) (UniProt P08172); details: Compound concentration 10.0 uM
Sequence of Muscarinic acetylcholine receptor M2 (Homo sapiens) (P08172 whole entry): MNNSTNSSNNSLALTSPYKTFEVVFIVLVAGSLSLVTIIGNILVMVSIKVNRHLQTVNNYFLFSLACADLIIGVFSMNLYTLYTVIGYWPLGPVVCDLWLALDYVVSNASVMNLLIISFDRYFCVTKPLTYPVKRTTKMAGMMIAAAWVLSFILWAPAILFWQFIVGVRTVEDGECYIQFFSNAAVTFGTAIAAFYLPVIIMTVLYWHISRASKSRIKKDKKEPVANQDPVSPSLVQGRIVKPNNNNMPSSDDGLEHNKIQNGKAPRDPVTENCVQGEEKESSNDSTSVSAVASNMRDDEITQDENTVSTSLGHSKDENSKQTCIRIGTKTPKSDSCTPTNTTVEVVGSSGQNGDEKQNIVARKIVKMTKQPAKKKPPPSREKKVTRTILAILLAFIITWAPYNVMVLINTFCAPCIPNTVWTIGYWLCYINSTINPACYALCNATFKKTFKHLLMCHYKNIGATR

[10] = biological target: Ephrin type-A receptor 6 (Homo sapiens, UniProt Q9UF33); assay: EphA6(EPA6LGI5) Takeda global kinase panel
[11] = biological target: G protein-coupled receptor kinase 4 (Homo sapiens, UniProt P32298); assay: GRK4(GRK4LGRI) Takeda global kinase panel
[12] = biological target: Death-associated protein kinase 3 (Homo sapiens, UniProt O43293); assay: DAPK3(DAP3LGP1) Takeda global kinase panel
[13] = biological target: High affinity nerve growth factor receptor (Homo sapiens, UniProt P04629); assay: TRKA(NTR1LGN1) Takeda global kinase panel
[14] = biological target: Histamine H3 receptor (Homo sapiens) (UniProt Q9Y5N1); details: Compound concentration 10.0 uM
[15] = biological target: Serine/threonine-protein kinase D3 (Homo sapiens, UniProt O94806); assay: PKD3(PRD3LGG5) Takeda global kinase panel
[16] = biological target: Protein-tyrosine kinase 6 (Homo sapiens, UniProt Q13882); assay: Brk(PTK6LGY1) Takeda global kinase panel
[17] = biological target: Cyclin-dependent kinase 16 (Homo sapiens, UniProt Q00536); assay: PCTAIRE1(CD16SGS1) Takeda global kinase panel
[18] = biological target: D(3) dopamine receptor (Homo sapiens) (UniProt P35462); details: Compound concentration 10.0 uM
[19] = biological target: Serine/threonine-protein kinase pim-3 (Homo sapiens, UniProt Q86V86); assay: Pim3(PIM3LGP1) Takeda global kinase panel
[20] = biological target: Alpha-2C adrenergic receptor (Homo sapiens, UniProt P18825); assay: GPCRScan assay: inhibition of Alpha2C; parameters: radioligand conc. used [nm] 0.5 – 1.0, parental cells stable MDCK
Sequence of Alpha-2C adrenergic receptor (P18825 whole entry): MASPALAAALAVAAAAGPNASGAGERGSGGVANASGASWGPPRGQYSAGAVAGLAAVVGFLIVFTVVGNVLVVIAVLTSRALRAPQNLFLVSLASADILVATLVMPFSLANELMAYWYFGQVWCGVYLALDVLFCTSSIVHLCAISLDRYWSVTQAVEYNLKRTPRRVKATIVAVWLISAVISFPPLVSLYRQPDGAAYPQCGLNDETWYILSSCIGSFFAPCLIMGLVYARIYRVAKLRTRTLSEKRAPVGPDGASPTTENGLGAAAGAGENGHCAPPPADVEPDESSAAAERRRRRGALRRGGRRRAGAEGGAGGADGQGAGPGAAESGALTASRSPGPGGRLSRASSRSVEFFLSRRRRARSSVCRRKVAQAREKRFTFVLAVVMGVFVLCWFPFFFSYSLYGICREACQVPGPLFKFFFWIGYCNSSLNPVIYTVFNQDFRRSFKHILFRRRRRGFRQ

[21] = biological target: Muscarinic acetylcholine receptor M2 (Homo sapiens) (UniProt P08172); details: Compound concentration 10.0 uM; remark: listed apart in the source
[22] = biological target: Serine/threonine-protein kinase Nek2 (Homo sapiens, UniProt P51955); assay: Nek2(NEK2LHFA) Takeda global kinase panel
[23] = biological target: D(2) dopamine receptor (Homo sapiens) (UniProt P14416); details: Compound concentration 10.0 uM
[24] = biological target: Serine/threonine-protein kinase PLK3 (Homo sapiens, UniProt Q9H4B4); assay: PLK3(PLK3PHY1) Takeda global kinase panel
[25] = biological target: MAP/microtubule affinity-regulating kinase 3 (Homo sapiens, UniProt P27448); assay: MARK3(MAR3LGO5) Takeda global kinase panel
[26] = biological target: Cyclin-dependent kinase 2 (Homo sapiens, UniProt P24941); assay: CDK2(CDK2CGS1) Takeda global kinase panel
[27] = biological target: Serine/threonine-protein kinase VRK2 (Homo sapiens, UniProt Q86Y07); assay: VRK2(VRK2LGRI) Takeda global kinase panel
[28] = biological target: Serine/threonine-protein kinase Chk1 (Homo sapiens, UniProt O14757); assay: CHK1(CHE1CGP1) Takeda global kinase panel
Sequence of Serine/threonine-protein kinase Chk1 (O14757 whole entry): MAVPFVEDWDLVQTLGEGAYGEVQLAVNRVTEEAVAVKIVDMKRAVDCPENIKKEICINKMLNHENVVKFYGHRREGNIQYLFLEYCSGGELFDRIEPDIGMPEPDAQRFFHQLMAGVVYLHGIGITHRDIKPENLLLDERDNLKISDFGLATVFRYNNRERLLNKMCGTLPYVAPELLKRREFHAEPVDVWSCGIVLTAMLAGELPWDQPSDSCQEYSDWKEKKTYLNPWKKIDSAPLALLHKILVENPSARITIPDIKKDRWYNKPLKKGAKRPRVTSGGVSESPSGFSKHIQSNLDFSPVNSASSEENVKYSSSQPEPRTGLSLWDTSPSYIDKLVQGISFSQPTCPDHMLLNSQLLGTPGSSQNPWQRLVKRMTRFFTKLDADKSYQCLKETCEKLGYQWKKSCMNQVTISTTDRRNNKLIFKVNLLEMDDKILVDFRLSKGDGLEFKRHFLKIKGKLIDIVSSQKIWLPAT

[29] = biological target: Cyclin-dependent kinase 14 (Homo sapiens, UniProt O94921); assay: PFTAIRE1(CD14CGS1) Takeda global kinase panel
[30] = biological target: Serine/threonine-protein kinase VRK1 (Homo sapiens, UniProt Q99986); assay: VRK1(VRK1LGRI) Takeda global kinase panel
Sequence of Serine/threonine-protein kinase VRK1 (Q99986 whole entry): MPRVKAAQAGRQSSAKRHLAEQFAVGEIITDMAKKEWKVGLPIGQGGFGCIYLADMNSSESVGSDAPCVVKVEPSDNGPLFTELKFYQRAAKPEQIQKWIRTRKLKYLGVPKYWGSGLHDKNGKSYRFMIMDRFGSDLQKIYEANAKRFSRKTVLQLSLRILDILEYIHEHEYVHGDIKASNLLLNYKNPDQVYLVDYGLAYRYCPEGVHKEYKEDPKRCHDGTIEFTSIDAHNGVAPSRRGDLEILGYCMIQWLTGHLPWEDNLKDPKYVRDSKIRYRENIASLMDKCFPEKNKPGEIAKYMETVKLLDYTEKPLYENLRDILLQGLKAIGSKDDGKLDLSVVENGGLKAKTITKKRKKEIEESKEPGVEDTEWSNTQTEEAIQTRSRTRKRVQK

[31] = biological target: Tyrosine-protein kinase Tec (Homo sapiens, UniProt P42680); assay: TEC(TEC1CGD1) Takeda global kinase panel
Sequence of Tyrosine-protein kinase Tec (P42680 whole entry): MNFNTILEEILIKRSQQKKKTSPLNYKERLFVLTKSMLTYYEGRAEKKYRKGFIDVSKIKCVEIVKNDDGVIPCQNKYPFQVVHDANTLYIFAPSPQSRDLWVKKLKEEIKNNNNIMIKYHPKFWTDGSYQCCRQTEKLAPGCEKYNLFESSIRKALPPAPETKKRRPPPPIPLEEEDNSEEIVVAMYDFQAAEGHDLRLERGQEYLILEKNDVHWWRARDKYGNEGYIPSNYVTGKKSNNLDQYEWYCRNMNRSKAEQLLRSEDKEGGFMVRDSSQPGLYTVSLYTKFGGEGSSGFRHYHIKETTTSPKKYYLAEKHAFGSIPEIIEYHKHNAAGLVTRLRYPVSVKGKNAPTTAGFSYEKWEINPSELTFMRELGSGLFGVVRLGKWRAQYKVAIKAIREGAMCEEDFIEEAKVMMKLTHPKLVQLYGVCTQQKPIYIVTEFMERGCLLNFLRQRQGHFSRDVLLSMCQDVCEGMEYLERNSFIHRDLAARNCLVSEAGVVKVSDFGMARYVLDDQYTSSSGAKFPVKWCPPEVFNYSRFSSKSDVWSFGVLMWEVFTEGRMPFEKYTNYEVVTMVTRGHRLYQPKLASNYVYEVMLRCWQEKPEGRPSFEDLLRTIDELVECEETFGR

[32] = biological target: Mitogen-activated protein kinase 11 (Homo sapiens, UniProt Q15759); assay: p38beta(MP11LGI1) Takeda global kinase panel
Sequence of Mitogen-activated protein kinase 11 (Q15759 whole entry): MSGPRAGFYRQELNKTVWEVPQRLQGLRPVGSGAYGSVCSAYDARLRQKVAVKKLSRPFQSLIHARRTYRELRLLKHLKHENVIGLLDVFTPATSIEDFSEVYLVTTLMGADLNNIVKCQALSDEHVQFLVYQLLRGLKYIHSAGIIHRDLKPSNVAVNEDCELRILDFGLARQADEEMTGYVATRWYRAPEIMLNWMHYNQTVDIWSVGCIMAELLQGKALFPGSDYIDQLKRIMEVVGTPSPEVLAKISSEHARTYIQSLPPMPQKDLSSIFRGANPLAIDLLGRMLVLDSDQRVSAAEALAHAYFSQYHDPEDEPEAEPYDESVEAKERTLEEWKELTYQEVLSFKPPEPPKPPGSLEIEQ

[33] = biological target: Muscarinic acetylcholine receptor M1 (Homo sapiens) (UniProt P11229); details: Compound concentration 10.0 uM
[34] = biological target: Histamine H2 receptor (Homo sapiens) (UniProt P25021); details: Compound concentration 10.0 uM
[35] = biological target: Dual specificity protein kinase CLK1 (Homo sapiens, UniProt P49759); assay: CLK1(CLK1LGF1) Takeda global kinase panel
[36] = biological target: D(1B) dopamine receptor (Homo sapiens) (UniProt P21918); assay: Dopamine D5 Eurofins-Panlabs radioligand binding assay; details: Compound concentration 10.0 uM
[37] = biological target: Eukaryotic translation initiation factor 2-alpha kinase 3 (Homo sapiens, UniProt Q9NZJ5); assay: PERK [PEK(EIK3CGQ1)] Takeda global kinase panel
Sequence of Eukaryotic translation initiation factor 2-alpha kinase 3 (Q9NZJ5 whole entry): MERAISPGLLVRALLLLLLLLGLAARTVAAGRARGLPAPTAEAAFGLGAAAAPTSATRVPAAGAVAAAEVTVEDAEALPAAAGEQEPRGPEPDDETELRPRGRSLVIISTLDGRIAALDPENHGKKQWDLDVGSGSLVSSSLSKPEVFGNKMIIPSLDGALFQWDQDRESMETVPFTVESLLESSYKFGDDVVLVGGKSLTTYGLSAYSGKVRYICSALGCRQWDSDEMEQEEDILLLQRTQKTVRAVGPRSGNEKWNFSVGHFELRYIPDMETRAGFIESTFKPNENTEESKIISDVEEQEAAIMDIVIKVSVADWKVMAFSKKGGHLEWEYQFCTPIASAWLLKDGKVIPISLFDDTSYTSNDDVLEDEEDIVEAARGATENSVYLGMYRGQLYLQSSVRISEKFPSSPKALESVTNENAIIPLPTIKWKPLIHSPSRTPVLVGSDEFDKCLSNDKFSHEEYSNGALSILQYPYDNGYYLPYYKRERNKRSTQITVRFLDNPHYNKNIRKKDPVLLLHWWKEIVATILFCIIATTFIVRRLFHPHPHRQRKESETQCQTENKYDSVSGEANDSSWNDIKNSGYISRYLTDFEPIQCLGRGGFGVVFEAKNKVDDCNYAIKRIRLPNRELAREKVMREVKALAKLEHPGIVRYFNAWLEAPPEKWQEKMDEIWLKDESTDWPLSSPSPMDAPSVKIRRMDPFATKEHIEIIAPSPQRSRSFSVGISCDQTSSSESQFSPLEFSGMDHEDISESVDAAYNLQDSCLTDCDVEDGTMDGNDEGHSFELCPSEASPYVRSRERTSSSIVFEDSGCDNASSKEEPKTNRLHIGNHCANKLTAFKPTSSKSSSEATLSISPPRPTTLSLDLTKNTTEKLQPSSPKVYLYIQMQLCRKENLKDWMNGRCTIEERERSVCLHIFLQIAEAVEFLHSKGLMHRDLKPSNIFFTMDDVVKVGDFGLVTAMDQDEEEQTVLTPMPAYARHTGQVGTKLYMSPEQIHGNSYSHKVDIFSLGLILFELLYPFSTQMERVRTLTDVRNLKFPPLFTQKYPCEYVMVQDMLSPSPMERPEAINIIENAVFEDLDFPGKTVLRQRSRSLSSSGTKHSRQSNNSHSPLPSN

[38] = biological target: Serine/threonine-protein kinase 24 (Homo sapiens, UniProt Q9Y6E0); assay: MST3(ST24LGC1) Takeda global kinase panel
[39] = biological target: Alpha-1D adrenergic receptor (Homo sapiens) (UniProt P25100); assay: Inhibition of Adrenergic alpha1D at 10 µM in the Eurofins-Panlabs radioligand binding assay (Eurofins_assay_203400); details: Compound concentration 10.0 uM
Sequence of Alpha-1D adrenergic receptor (Homo sapiens) (P25100 whole entry): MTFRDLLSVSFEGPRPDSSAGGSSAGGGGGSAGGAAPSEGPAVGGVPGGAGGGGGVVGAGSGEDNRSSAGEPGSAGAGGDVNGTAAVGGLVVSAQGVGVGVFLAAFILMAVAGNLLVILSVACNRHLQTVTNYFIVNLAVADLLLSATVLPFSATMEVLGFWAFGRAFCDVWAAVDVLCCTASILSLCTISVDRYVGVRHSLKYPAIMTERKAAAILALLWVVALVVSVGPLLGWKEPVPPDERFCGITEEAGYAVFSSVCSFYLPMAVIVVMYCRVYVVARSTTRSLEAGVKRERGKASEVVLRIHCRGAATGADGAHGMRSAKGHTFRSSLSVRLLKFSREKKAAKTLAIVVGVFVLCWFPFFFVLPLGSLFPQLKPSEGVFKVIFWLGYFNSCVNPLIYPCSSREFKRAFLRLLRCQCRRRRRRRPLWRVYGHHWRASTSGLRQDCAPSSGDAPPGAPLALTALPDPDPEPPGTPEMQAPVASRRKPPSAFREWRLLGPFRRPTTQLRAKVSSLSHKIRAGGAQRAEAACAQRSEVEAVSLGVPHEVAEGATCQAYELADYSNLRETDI

[40] = biological target: Macrophage colony-stimulating factor 1 receptor (Homo sapiens, UniProt P07333); assay: FmS [CSFR(CSF1LGC1)] Takeda global kinase panel
[41] = biological target: PAS domain-containing serine/threonine-protein kinase (Homo sapiens, UniProt Q96RG2); assay: PASK(PASKPHY1) Takeda global kinase panel
[42] = biological target: Ribosomal protein S6 kinase alpha-4 (Homo sapiens, UniProt O75676); assay: MSK2(R6A4LGRJ) Takeda global kinase panel
[43] = biological target: Serine/threonine-protein kinase 4 (Homo sapiens, UniProt Q13043); assay: MST1(STK4LGF1) Takeda global kinase panel
Sequence of Serine/threonine-protein kinase 4 (Q13043 whole entry): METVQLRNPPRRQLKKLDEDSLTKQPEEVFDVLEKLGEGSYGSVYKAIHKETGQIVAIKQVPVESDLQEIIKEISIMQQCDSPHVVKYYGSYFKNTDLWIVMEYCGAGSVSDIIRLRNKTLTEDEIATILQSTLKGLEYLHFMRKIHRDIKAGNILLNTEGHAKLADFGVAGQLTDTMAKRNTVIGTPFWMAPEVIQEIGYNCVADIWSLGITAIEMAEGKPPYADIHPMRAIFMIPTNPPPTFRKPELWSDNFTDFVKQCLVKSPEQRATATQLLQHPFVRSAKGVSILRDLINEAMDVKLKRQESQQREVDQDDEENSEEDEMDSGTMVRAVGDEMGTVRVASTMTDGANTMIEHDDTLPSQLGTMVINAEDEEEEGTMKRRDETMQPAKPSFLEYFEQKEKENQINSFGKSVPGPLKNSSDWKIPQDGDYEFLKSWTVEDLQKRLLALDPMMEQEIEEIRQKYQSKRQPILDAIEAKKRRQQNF

[44] = biological target: G protein-coupled receptor kinase 3 (Homo sapiens, UniProt P35626); assay: BARK2 [GRK3(ADR2LGG5)] Takeda global kinase panel
[45] = biological target: Serine/threonine-protein kinase Nek8 (Homo sapiens, UniProt Q86SG6); assay: Nek8(NEK8LGRI) Takeda global kinase panel
[46] = biological target: Homeodomain-interacting protein kinase 2 (Homo sapiens, UniProt Q9H2X6); assay: HIPK2(HIP2LGY1) Takeda global kinase panel

Compound: CN1C(=O)[C@@H](N2CCc3c(nn(Cc4ccccc4)c3Br)C2=O)COc2ccccc21 [TP-030-2]
- IC50 [1]: 1000 nM
- IC50 [2]: 1000 nM
- IC50 [3]: 1000 nM
- IC50 [4]: 1000 nM
- inhibition [5]: 39.3%
- inhibition [6]: 1%
- IC50 [7]: 1000 nM
- IC50 [8]: 1000 nM
- inhibition [9]: 2%
- IC50 [10]: 1000 nM
- IC50 [11]: 1000 nM
- IC50 [12]: 1000 nM
- IC50 [13]: 1000 nM
- inhibition [14]: 5%
- IC50 [15]: 1000 nM
- IC50 [16]: 1000 nM
- IC50 [17]: 1000 nM
- inhibition [18]: 14%
- IC50 [19]: 1000 nM
- Ki ([20]; read-out: Ki): 2950 nM
- Ki ([20]; read-out: pKi (converted)): 2820 nM
- inhibition [21]: -4.12%
- IC50 [22]: 1000 nM
- inhibition [23]: -5.95%
- IC50 [24]: 1000 nM
- IC50 [25]: 1000 nM
- IC50 [26]: 1000 nM
- IC50 [27]: 1000 nM
- IC50 [28]: 1000 nM
- IC50 [29]: 1000 nM
- IC50 [30]: 1000 nM
- IC50 [31]: 1000 nM
- IC50 [32]: 1000 nM
- inhibition [33]: 21.6%
- inhibition [34]: 0.52%
- IC50 [35]: 1000 nM
- inhibition [36]: 2%
- IC50 [37]: 1000 nM
- IC50 [38]: 1000 nM
- inhibition [39]: -2%
- IC50 [40]: 1000 nM
- IC50 [41]: 1000 nM
- IC50 [42]: 1000 nM
- IC50 [43]: 1000 nM
- IC50 [44]: 1000 nM
- IC50 [45]: 1000 nM
- IC50 [46]: 1000 nM
